This is an account of results in patent US4696933A, “Guanidine compounds useful as histamine H2-antagonists” (ICI Americas Inc., priority 1981, dated 1987).

A short description of data set [1]: intravenous toxicity in anaesthetised rats. Format: in vivo. Particulars: two anaesthetised rats, ten times the dose giving approximate 50% inhibition of gastric secretion in the anaesthetised rat. As to the method: (§1) No overt toxicity or side effects were noted during the rat or dog tests. The compound 5-[4-(2-allylguanidino)-1,2,3-triazol-2-yl]valeramide was administered intravenously to groups of two anaesthetised rats and four conscious mice at doses which were respectively ten times and one hundred times the dose, in mg/kg., which produced an approximate 50% inhibition of gastric secretion in the anaesthetised rat.

A short description of data set [2]: intravenous toxicity in conscious mice. Format: in vivo. Conditions: four conscious mice, one hundred times the dose giving approximate 50% inhibition of gastric secretion in the anaesthetised rat. As to the method: as §1

Take `C=CCN=C(N)Nc1cnn(CCCCC(N)=O)n1.O=C(O)/C=C\C(=O)O` [Example 8, 5-(4-[2-allylguanidino]-1,2,3-triazol-2-yl)valeramide maleate]: the toxic symptoms result in data set [1] and in data set [2] was “No toxic symptoms were noted” each time.
